Test results as given in patent US20240382557A1, “INHIBITION OF TUMOR NECROSIS FACTOR, PRO-INFLAMMATORY CYTOKINES AND OTHER INFLAMMATORY RESPONSE MEDIATORS” (Allegro Pharmaceuticals, LLC, priority 2021, published 2024).
Where a SMILES comes first, the peptide text is derived from it. [ ]: non-standard residue; d: D form. Cya = N[C@@H](CS(=O)(=O)O)C(=O)O

Test system: Primary human immune cells (PBMC)
Experiment: RNA-seq gene expression in primary human immune cells after risuteganib
Type: cell-based
Details: 100 μM, 8 hours
Procedure: Purpose: In this study, RNA-seq was used to unbiasedly identify the genes regulated by risuteganib exposure in primary human immune cells. Analysis of the specific subset of genes regulated by risuteganib enables identification of biological processes and pathways modulated by the oligopeptide Methods: Primary human immune cells (PBMC) were obtained from a single human donor. The cells were separated into two groups: vehicle or 100 μM risuteganib treatment for 8 hours. After exposure, cells were collected and their total RNA isolated for RNA-seq. The generated reads were then aligned to human reference genome/transcriptome and gene expression quantified for differential expression analysis and fold change calculation. The list of regulated genes was then used to identify biological processes and pathways that are regulated after Risuteganib exposure compared to vehicle control.

Question: With `C[C@@H](O)[C@H](NC(=O)[C@H](CS(=O)(=O)O)NC(=O)CNC(=O)[C@H](CCCNC(=N)N)NC(=O)CN)C(=O)N1CCC[C@H]1C(=O)O` [Risuteganib, Glycyl-L-arginylglycyl-3-sulfo-L-alanyl-L-threonyl-L-proline] (H-GRG[Cya]TP-OH) as the compound, how does the “ADAM8 Mean Expression Rate (Normalized as Fraction Control)” value read?
Answer: 0.9708

Question: And the “ADGRB1 Mean Expression Rate (Normalized as Fraction Control)” value?
Answer: 0.8444

Question: And the “ADGRE2 Mean Expression Rate (Normalized as Fraction Control)” value?
Answer: 0.923

Question: What about the “ADGRG3 Mean Expression Rate (Normalized as Fraction Control)” value of the same compound?
Answer: 0.8381

Question: What about the “AGER Mean Expression Rate (Normalized as Fraction Control)” value of the same compound?
Answer: 0.9136

Question: What about the “AKIRIN2 Mean Expression Rate (Normalized as Fraction Control)” value of the same compound?
Answer: 0.9697

Question: What about the “ALDH3B1 Mean Expression Rate (Normalized as Fraction Control)” value of the same compound?
Answer: 0.8912

Question: And the “ANPEP Mean Expression Rate (Normalized as Fraction Control)” value?
Answer: 0.9082

Question: And the “ARRB2 Mean Expression Rate (Normalized as Fraction Control)” value?
Answer: 0.9014

Question: What about the “ARSA Mean Expression Rate (Normalized as Fraction Control)” value of the same compound?
Answer: 0.9239

Question: And the “ATP6V0A1 Mean Expression Rate (Normalized as Fraction Control)” value?
Answer: 0.9432

Question: What about the “BAG6 Mean Expression Rate (Normalized as Fraction Control)” value of the same compound?
Answer: 0.9522

Question: What about the “BCL3 Mean Expression Rate (Normalized as Fraction Control)” value of the same compound?
Answer: 0.8918

Question: And the “BRI3 Mean Expression Rate (Normalized as Fraction Control)” value?
Answer: 0.9397

Question: And the “CCL2 Mean Expression Rate (Normalized as Fraction Control)” value?
Answer: 0.9143

Question: And the “CCL3L1 Mean Expression Rate (Normalized as Fraction Control)” value?
Answer: 0.8739

Question: What about the “CCL4L2 Mean Expression Rate (Normalized as Fraction Control)” value of the same compound?
Answer: 0.9389

Question: What about the “CCL4 Mean Expression Rate (Normalized as Fraction Control)” value of the same compound?
Answer: 0.9605

Question: What about the “CCL22 Mean Expression Rate (Normalized as Fraction Control)” value of the same compound?
Answer: 0.9197

Question: What about the “CD14 Mean Expression Rate (Normalized as Fraction Control)” value of the same compound?
Answer: 0.8899

Question: What about the “CD63 Mean Expression Rate (Normalized as Fraction Control)” value of the same compound?
Answer: 0.9487

Question: What about the “CD300A Mean Expression Rate (Normalized as Fraction Control)” value of the same compound?
Answer: 0.9137

Question: What about the “CDC37 Mean Expression Rate (Normalized as Fraction Control)” value of the same compound?
Answer: 0.935

Question: And the “CEBPB Mean Expression Rate (Normalized as Fraction Control)” value?
Answer: 0.8752

Question: And the “CKAP4 Mean Expression Rate (Normalized as Fraction Control)” value?
Answer: 0.9133

Question: What about the “CLCF1 Mean Expression Rate (Normalized as Fraction Control)” value of the same compound?
Answer: 0.8975

Question: And the “CSF1 Mean Expression Rate (Normalized as Fraction Control)” value?
Answer: 0.8841

Question: And the “CSF3 Mean Expression Rate (Normalized as Fraction Control)” value?
Answer: 0.8615

Question: What about the “CSTB Mean Expression Rate (Normalized as Fraction Control)” value of the same compound?
Answer: 0.9649

Question: What about the “CTSA Mean Expression Rate (Normalized as Fraction Control)” value of the same compound?
Answer: 0.941

Question: And the “CTSD Mean Expression Rate (Normalized as Fraction Control)” value?
Answer: 0.9173

Question: What about the “CXCL1 Mean Expression Rate (Normalized as Fraction Control)” value of the same compound?
Answer: 0.9216

Question: What about the “CXCL2 Mean Expression Rate (Normalized as Fraction Control)” value of the same compound?
Answer: 0.8524

Question: And the “CXCL16 Mean Expression Rate (Normalized as Fraction Control)” value?
Answer: 0.9326

Question: What about the “CYB5R3 Mean Expression Rate (Normalized as Fraction Control)” value of the same compound?
Answer: 0.9564

Question: What about the “CYBA Mean Expression Rate (Normalized as Fraction Control)” value of the same compound?
Answer: 0.8869

Question: What about the “CYP27B1 Mean Expression Rate (Normalized as Fraction Control)” value of the same compound?
Answer: 0.8623

Question: And the “DGAT1 Mean Expression Rate (Normalized as Fraction Control)” value?
Answer: 0.9308

Question: What about the “DNAJC5 Mean Expression Rate (Normalized as Fraction Control)” value of the same compound?
Answer: 0.969

Question: What about the “DOK3 Mean Expression Rate (Normalized as Fraction Control)” value of the same compound?
Answer: 0.8929

Question: And the “DYSF Mean Expression Rate (Normalized as Fraction Control)” value?
Answer: 0.8587

Question: And the “ERCC1 Mean Expression Rate (Normalized as Fraction Control)” value?
Answer: 0.8784

Question: And the “FABP5 Mean Expression Rate (Normalized as Fraction Control)” value?
Answer: 0.8713

Question: What about the “FCER1G Mean Expression Rate (Normalized as Fraction Control)” value of the same compound?
Answer: 0.9289

Question: And the “FCER2 Mean Expression Rate (Normalized as Fraction Control)” value?
Answer: 0.7686

Question: What about the “FCGRT Mean Expression Rate (Normalized as Fraction Control)” value of the same compound?
Answer: 0.8558

Question: What about the “FGR Mean Expression Rate (Normalized as Fraction Control)” value of the same compound?
Answer: 0.9222

Question: And the “FOS Mean Expression Rate (Normalized as Fraction Control)” value?
Answer: 0.822

Question: What about the “GAA Mean Expression Rate (Normalized as Fraction Control)” value of the same compound?
Answer: 0.9121

Question: What about the “GALNS Mean Expression Rate (Normalized as Fraction Control)” value of the same compound?
Answer: 0.9356

Question: What about the “GLA Mean Expression Rate (Normalized as Fraction Control)” value of the same compound?
Answer: 0.9639

Question: And the “GPR84 Mean Expression Rate (Normalized as Fraction Control)” value?
Answer: 0.9231

Question: And the “GPX1 Mean Expression Rate (Normalized as Fraction Control)” value?
Answer: 0.9254

Question: And the “GRN Mean Expression Rate (Normalized as Fraction Control)” value?
Answer: 0.9221

Question: And the “HEXIM1 Mean Expression Rate (Normalized as Fraction Control)” value?
Answer: 0.9653

Question: And the “HIST2H2BE Mean Expression Rate (Normalized as Fraction Control)” value?
Answer: 0.8527

Question: And the “HLA-DPB1 Mean Expression Rate (Normalized as Fraction Control)” value?
Answer: 0.9295

Question: What about the “HLA-DQB1 Mean Expression Rate (Normalized as Fraction Control)” value of the same compound?
Answer: 0.9554

Question: What about the “HLX Mean Expression Rate (Normalized as Fraction Control)” value of the same compound?
Answer: 0.9084

Question: What about the “HRAS Mean Expression Rate (Normalized as Fraction Control)” value of the same compound?
Answer: 0.9238

Question: And the “IFI30 Mean Expression Rate (Normalized as Fraction Control)” value?
Answer: 0.8318

Question: What about the “IGHD Mean Expression Rate (Normalized as Fraction Control)” value of the same compound?
Answer: 0.8731

Question: And the “IGLC2 Mean Expression Rate (Normalized as Fraction Control)” value?
Answer: 0.8467

Question: What about the “IGLV2-23 Mean Expression Rate (Normalized as Fraction Control)” value of the same compound?
Answer: 0.4503

Question: And the “IL1RN Mean Expression Rate (Normalized as Fraction Control)” value?
Answer: 0.8469

Question: And the “IL4R Mean Expression Rate (Normalized as Fraction Control)” value?
Answer: 0.9748

Question: What about the “IL6 Mean Expression Rate (Normalized as Fraction Control)” value of the same compound?
Answer: 0.9281

Question: What about the “IRF5 Mean Expression Rate (Normalized as Fraction Control)” value of the same compound?
Answer: 0.9293

Question: And the “ITGAL Mean Expression Rate (Normalized as Fraction Control)” value?
Answer: 0.9842

Question: And the “ITGAM Mean Expression Rate (Normalized as Fraction Control)” value?
Answer: 0.9473

Question: And the “ITGAX Mean Expression Rate (Normalized as Fraction Control)” value?
Answer: 0.8865

Question: What about the “KCNAB2 Mean Expression Rate (Normalized as Fraction Control)” value of the same compound?
Answer: 0.9588

Question: What about the “KCNN4 Mean Expression Rate (Normalized as Fraction Control)” value of the same compound?
Answer: 0.9127

Question: What about the “LFNG Mean Expression Rate (Normalized as Fraction Control)” value of the same compound?
Answer: 0.9734

Question: What about the “LIF Mean Expression Rate (Normalized as Fraction Control)” value of the same compound?
Answer: 0.7939

Question: And the “LILRB3 Mean Expression Rate (Normalized as Fraction Control)” value?
Answer: 0.9396
